From the supplement of paper PMC10307832

Tests used:
Assay in all cases: relative viability (nuclei count vs DMSO), 5 days (fraction); higher = more cells survive
AT-7519 + Palbociclib = compound: O=C(NC1CCNCC1)c1n[nH]cc1NC(=O)c1c(Cl)cccc1Cl [AT-7519] + CC(=O)c1c(C)c2cnc(Nc3ccc(N4CCNCC4)cn3)nc2n(C2CCCC2)c1=O [Palbociclib] (partner 0.5 µM)
How it was run: (§1)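 One day after seeding in 1536-well plates, lung cancer cell lines were dosed by pin tool. Dosing was either single-drug or a fixed anchor-drug dose plus five library-drug doses (not always all listed) in √10 steps. After 5 days, nuclei were stained in one fix-and-stain step and counted on 4× images, and relative viability is the nuclei count of treated wells over that of vehicle wells, given as the median of duplicate plates.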

AT-7519 + AZD7762 = compound: O=C(NC1CCNCC1)c1n[nH]cc1NC(=O)c1c(Cl)cccc1Cl [AT-7519] + NC(=O)Nc1cc(-c2cccc(F)c2)sc1C(=O)N[C@H]1CCCNC1 [AZD7762] (partner 0.2 µM)
How it was run: as §1

[1] = compound: C1=CC2=C(C=C(C(=C2N=C1)O)N=NC3=CC4=C(C=C3)C=C(C=C4)S(=O)(=O)O)S(=O)(=O)O + Cc1nc(NC(=O)N2CCC[C@H]2C(N)=O)sc1-c1ccnc(C(C)(C)C(F)(F)F)c1 [Alpelisib] (partner 2 µM)
How it was run: as §1

AT-7519 + Bortezomib = compound: O=C(NC1CCNCC1)c1n[nH]cc1NC(=O)c1c(Cl)cccc1Cl [AT-7519] + CC(C)C[C@H](NC(=O)[C@H](Cc1ccccc1)NC(=O)c1cnccn1)B(O)O [Bortezomib] (partner 0.002 µM)
How it was run: as §1

| Cell Line | relative viability (AT-7519 + Palbociclib; first compound 0.01 µM) | relative viability (AT-7519 + Palbociclib; first compound 0.03162 µM) | relative viability (AT-7519 + Palbociclib; first compound 0.3162 µM) | relative viability (AT-7519 + Palbociclib; first compound 1 µM) | relative viability (AT-7519 + AZD7762; first compound 0.01 µM) | relative viability (AT-7519 + AZD7762; first compound 0.03162 µM) | relative viability (AT-7519 + AZD7762; first compound 0.3162 µM) | relative viability (AT-7519 + AZD7762; first compound 1 µM) | relative viability ([1]; first compound 0.08 µM) | relative viability ([1]; first compound 0.253 µM) | relative viability ([1]; first compound 0.8 µM) | relative viability ([1]; first compound 2.53 µM) | relative viability ([1]; first compound 8 µM) | relative viability (AT-7519 + Bortezomib; first compound 0.01 µM) | relative viability (AT-7519 + Bortezomib; first compound 0.03162 µM) | relative viability (AT-7519 + Bortezomib; first compound 0.3162 µM) | relative viability (AT-7519 + Bortezomib; first compound 1 µM) |
| --- | --- | --- | --- | --- | --- | --- | --- | --- | --- | --- | --- | --- | --- | --- | --- | --- | --- |
| NCI-H2342 | 0.53 | 0.491 | 0.497 | 0.533 | 0.514 | 0.507 | 0.508 | 0.447 | – | – | – | – | – | – | – | – | – |
| HCC-15 | 0.779 | 0.717 | 0.618 | 0.537 | 1.18 | 1.37 | 1.17 | 1.14 | 0.97 | 0.811 | 0.807 | 0.895 | 0.938 | 1.07 | 1.01 | 0.852 | 0.977 |
| A-427 | 0.551 | 0.491 | 0.467 | 0.327 | 0.791 | 0.627 | 0.883 | 0.502 | 1.19 | 1.07 | 1.09 | 1.08 | 1.17 | 1.02 | 0.961 | 1.04 | 0.792 |
| NCI-H2228 | 0.638 | 0.642 | 0.636 | 0.408 | – | – | – | – | 0.687 | 0.787 | 0.778 | 0.655 | 0.695 | 0.977 | 0.801 | 0.66 | 0.8 |
| NCI-H1734 | 0.288 | 0.319 | 0.353 | 0.167 | 0.519 | 0.493 | 0.655 | 0.453 | 0.746 | 0.692 | 0.636 | 0.638 | 0.689 | 0.782 | 0.884 | 0.842 | 0.442 |
| PC-14 | 0.433 | 0.502 | 0.338 | 0.0604 | 0.416 | 0.261 | 0.38 | 0.44 | 1.03 | 0.875 | 0.891 | 0.994 | 0.967 | 0.807 | 0.71 | 0.861 | 0.618 |
| NCI-H1915 | 0.592 | 0.509 | 0.608 | 0.39 | 0.704 | 0.689 | 0.773 | 0.782 | 1.09 | 1.05 | 1.08 | 1.09 | 1.06 | 1.07 | 1.06 | 0.546 | 0.944 |
| NCI-H1666 | 0.642 | 0.658 | 0.674 | 0.655 | 0.852 | 0.818 | 0.917 | 0.863 | 0.985 | 0.837 | 1.05 | 0.994 | 1.04 | 0.782 | 0.794 | 0.733 | 0.333 |
| HCC-366 | 0.393 | 0.228 | 0.317 | 0.139 | 0.326 | 0.228 | 0.293 | 0.371 | 0.386 | 0.344 | 0.389 | 0.401 | 0.439 | 1.26 | 0.864 | 1.07 | 0.442 |
| SK-MES-1 | 0.304 | 0.31 | 0.295 | 0.204 | – | – | – | – | 0.987 | 0.845 | 0.824 | 0.944 | 0.847 | – | – | – | – |
| SW 1573 | 0.38 | 0.368 | 0.212 | 0.109 | – | – | – | – | 0.92 | 0.727 | 0.775 | 0.761 | 0.797 | 0.981 | 0.842 | 0.884 | 0.428 |
| NCI-H661 | 0.382 | 0.432 | 0.4 | 0.256 | – | – | – | – | 0.746 | 0.467 | 0.54 | 0.703 | 0.967 | 0.743 | 0.755 | 0.786 | 0.567 |
| PC-3 [JPC-3] | 0.591 | 0.548 | 0.508 | 0.575 | 0.908 | 0.844 | 0.671 | 0.992 | 1.11 | 1.02 | 0.971 | 1.04 | 0.998 | 0.947 | 0.863 | 0.86 | 0.848 |
| Calu-6 | – | – | – | – | – | – | – | – | 0.942 | 0.965 | 1.1 | 0.988 | 1.04 | 1.11 | 0.975 | 1 | 0.328 |
| LC-2-ad | 0.497 | 0.466 | 0.484 | 0.372 | 0.77 | 0.844 | 0.826 | 0.945 | 0.619 | 0.783 | 0.828 | 0.857 | 0.98 | 0.962 | 0.978 | 1.02 | 0.672 |
| CAL-12T | 0.396 | 0.471 | 0.172 | 0.151 | 0.701 | 0.623 | 0.58 | 0.354 | 1.85 | 1.13 | 1.08 | 1.29 | 1.13 | – | 0.929 | 0.593 | 0.336 |
| RERF-LC-KJ | 1.09 | 1.13 | 0.86 | 0.55 | 0.87 | 0.698 | 1.18 | 1.03 | 0.907 | 0.842 | 0.795 | 0.818 | 0.843 | 1.1 | 1.14 | 1.08 | 0.797 |
| NCI-H1650 | 0.284 | 0.331 | 0.27 | 0.164 | – | – | – | – | – | – | – | – | – | 0.19 | 0.203 | 0.183 | 0.194 |
| BEN | 0.5 | 0.515 | 0.455 | 0.461 | 0.685 | 0.754 | 0.697 | 0.704 | 1.26 | 0.962 | 0.847 | 1.04 | 0.932 | 0.958 | 0.766 | 0.935 | 0.82 |
| EMC-BAC-2 | 0.504 | 0.506 | 0.468 | 0.513 | 1.09 | 1.1 | 1.03 | 1.19 | 0.8 | 0.75 | 0.711 | 0.766 | 0.696 | 1.04 | 1.07 | 1.01 | 1.07 |
| LU99A | 0.443 | 0.411 | 0.389 | 0.329 | 0.329 | 0.29 | 0.538 | 0.342 | 0.608 | 0.488 | 0.422 | 0.582 | 0.514 | 1.15 | 1.07 | 1.14 | 0.988 |
